Test: activity coefficient (dimensionless); of the first substance listed, at infinite dilution; xn = mol fraction of the nth substance listed
Conditions: Liquid, x1 = 0

CC(C)O [propan-2-ol] + O
Conditions | activity coefficient
283.15 K, Relative Headspace Analysis | 5.37
293.15 K, Relative Headspace Analysis | 6.89
308.15 K, Relative Headspace Analysis | 8.84
333.15 K, Rayleigh distallation | 11.8
353.15 K, circulation equilibrium still | 12.5
363.15 K, circulation equilibrium still | 12.9
371.15 K, circulation equilibrium still | 13.1

CC(C)(C)O [2-methylpropan-2-ol] + O
Conditions | activity coefficient
299.15 K, headspace analysis | 13.1
303.15 K, headspace analysis | 14.4
313.15 K, headspace analysis | 16.9
323.15 K, Rayleigh distallation | 19.9
333.15 K, Rayleigh distallation | 21.8
343.15 K, Rayleigh distallation | 23.5
353.15 K, circulation equilibrium still | 25.4
363.15 K, circulation equilibrium still | 26.3
371.15 K, circulation equilibrium still | 27.4

CC(C)CO [2-methyl-1-propanol] + O
Conditions | activity coefficient
273.35 K, Relative Headspace Analysis | 31.6
283.15 K, Relative Headspace Analysis | 36.8
293.15 K, headspace analysis | 44.3
298.15 K, Relative Headspace Analysis | 47.4
303.15 K, headspace analysis | 50.3
313.15 K, headspace analysis | 54.1
323.15 K, headspace analysis | 57.6
333.15 K, headspace analysis | 58.3
363.15 K, circulation equilibrium still | 54.3
371.15 K, circulation equilibrium still | 52.2

CCC(C)O (configuration not stated) [butan-2-ol] + O
Conditions | activity coefficient
273.35 K, Relative Headspace Analysis | 13.7
283.15 K, Relative Headspace Analysis | 17.9
293.15 K, Relative Headspace Analysis | 22.6
293.15 K, headspace analysis | 22.5
303.15 K, headspace analysis | 26.8
303.15 K, inert gas stripping | 26.8
313.15 K, headspace analysis | 31.3
313.15 K, inert gas stripping | 30.8
323.15 K, headspace analysis | 33.8
323.15 K, inert gas stripping | 34.4
333.15 K, headspace analysis | 36.9
333.15 K, inert gas stripping | 35.7
343.15 K, Rayleigh distallation | 38
353.15 K, Rayleigh distallation | 38.4
363.15 K, circulation equilibrium still | 40.4
371.15 K, circulation equilibrium still | 37.8

Reference: the NIST ThermoML archive (doi:10.1021/je600567z)
